{"source": "the supplement of paper PMC10307832", "experiment_in_all_cases": "relative viability (nuclei count vs DMSO), 5 days (fraction); higher = more cells survive", "key": {"HCC-78": {"tested_on": "HCC-78", "outline": "(§1)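 Lung cancer cell lines were pin-tool dosed in 1536-well plates on the day after seeding, with either a lone drug or a fixed anchor-drug dose plus five library-drug doses (not always all listed) in √10 steps. Nuclei were counted on 4× images after 5 days. Relative viability is the ratio of treated-well to vehicle-well nuclei counts, with each value a median of duplicate plates.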"}, "NCI-H1993": {"tested_on": "NCI-H1993", "outline": "as §1"}, "UMC-11": {"tested_on": "UMC-11", "outline": "as §1"}, "BEN": {"tested_on": "BEN", "outline": "as §1"}, "NCI-H1395": {"tested_on": "NCI-H1395", "outline": "as §1"}, "LXF-289": {"tested_on": "LXF-289", "outline": "as §1"}, "LC-2-ad": {"tested_on": "LC-2-ad", "outline": "as §1"}, "RERF-LC-KJ": {"tested_on": "RERF-LC-KJ", "outline": "as §1"}, "HARA": {"tested_on": "HARA", "outline": "as §1"}, "LOU-NH91": {"tested_on": "LOU-NH91", "outline": "as §1"}, "LU99A": {"tested_on": "LU99A", "outline": "as §1"}, "H3255": {"tested_on": "H3255", "outline": "as §1"}, "EMC-BAC-2": {"tested_on": "EMC-BAC-2", "outline": "as §1"}, "NCI-H2126": {"tested_on": "NCI-H2126", "outline": "as §1"}, "201T": {"tested_on": "201T", "outline": "as §1"}, "HOP-62": {"tested_on": "HOP-62", "outline": "as §1"}, "NCI-H2087": {"tested_on": "NCI-H2087", "outline": "as §1"}, "COR-L 105": {"tested_on": "COR-L 105", "outline": "as §1"}, "SK-MES-1": {"tested_on": "SK-MES-1", "outline": "as §1"}, "NCI-H2170": {"tested_on": "NCI-H2170", "outline": "as §1"}}, "data": [{"smiles": "Cc1csc(=NC2CCCCC2)n1/N=C/c1ccc(O)c(O)c1O", "note": "[MIM1] + CC1(C)CCC(c2ccc(Cl)cc2)=C(CN2CCN(c3ccc(C(=O)NS(=O)(=O)c4ccc(N[C@H](CCN5CCOCC5)CSc5ccccc5)c(S(=O)(=O)C(F)(F)F)c4)cc3)CC2)C1 [Navitoclax] (partner 0.5 µM)", "values": [{"measurement": "relative viability", "setting": "HCC-78; first compound 0.2 µM", "value": 0.899}, {"measurement": "relative viability", "setting": "HCC-78; first compound 0.6325 µM", "value": 0.731}, {"measurement": "relative viability", "setting": "HCC-78; first compound 2 µM", "value": 0.668}, {"measurement": "relative viability", "setting": "HCC-78; first compound 6.325 µM", "value": 0.562}, {"measurement": "relative viability", "setting": "HCC-78; first compound 20 µM", "value": 0.739}, {"measurement": "relative viability", "setting": "NCI-H1993; first compound 0.2 µM", "value": 0.911}, {"measurement": "relative viability", "setting": "NCI-H1993; first compound 0.6325 µM", "value": 0.951}, {"measurement": "relative viability", "setting": "NCI-H1993; first compound 2 µM", "value": 0.854}, {"measurement": "relative viability", "setting": "NCI-H1993; first compound 6.325 µM", "value": 0.822}, {"measurement": "relative viability", "setting": "NCI-H1993; first compound 20 µM", "value": 0.425}, {"measurement": "relative viability", "setting": "UMC-11; first compound 0.2 µM", "value": 0.32}, {"measurement": "relative viability", "setting": "UMC-11; first compound 0.6325 µM", "value": 0.298}, {"measurement": "relative viability", "setting": "UMC-11; first compound 2 µM", "value": 0.36}, {"measurement": "relative viability", "setting": "UMC-11; first compound 6.325 µM", "value": 0.208}, {"measurement": "relative viability", "setting": "UMC-11; first compound 20 µM", "value": 0.145}, {"measurement": "relative viability", "setting": "BEN; first compound 0.2 µM", "value": 0.0709}, {"measurement": "relative viability", "setting": "BEN; first compound 0.6325 µM", "value": 0.0746}, {"measurement": "relative viability", "setting": "BEN; first compound 2 µM", "value": 0.0631}, {"measurement": "relative viability", "setting": "BEN; first compound 6.325 µM", "value": 0.0911}, {"measurement": "relative viability", "setting": "BEN; first compound 20 µM", "value": 0.0543}, {"measurement": "relative viability", "setting": "NCI-H1395; first compound 0.2 µM", "value": 1.06}, {"measurement": "relative viability", "setting": "NCI-H1395; first compound 0.6325 µM", "value": 1.1}, {"measurement": "relative viability", "setting": "NCI-H1395; first compound 2 µM", "value": 1.63}, {"measurement": "relative viability", "setting": "NCI-H1395; first compound 6.325 µM", "value": 0.646}, {"measurement": "relative viability", "setting": "NCI-H1395; first compound 20 µM", "value": 0.425}, {"measurement": "relative viability", "setting": "LXF-289; first compound 0.2 µM", "value": 0.921}, {"measurement": "relative viability", "setting": "LXF-289; first compound 0.6325 µM", "value": 0.939}, {"measurement": "relative viability", "setting": "LXF-289; first compound 2 µM", "value": 0.921}, {"measurement": "relative viability", "setting": "LXF-289; first compound 6.325 µM", "value": 0.768}, {"measurement": "relative viability", "setting": "LXF-289; first compound 20 µM", "value": 0.487}, {"measurement": "relative viability", "setting": "LC-2-ad; first compound 0.2 µM", "value": 0.491}, {"measurement": "relative viability", "setting": "LC-2-ad; first compound 0.6325 µM", "value": 0.516}, {"measurement": "relative viability", "setting": "LC-2-ad; first compound 2 µM", "value": 0.498}, {"measurement": "relative viability", "setting": "LC-2-ad; first compound 6.325 µM", "value": 0.251}, {"measurement": "relative viability", "setting": "LC-2-ad; first compound 20 µM", "value": 0.135}, {"measurement": "relative viability", "setting": "RERF-LC-KJ; first compound 0.2 µM", "value": 0.848}, {"measurement": "relative viability", "setting": "RERF-LC-KJ; first compound 0.6325 µM", "value": 0.725}, {"measurement": "relative viability", "setting": "RERF-LC-KJ; first compound 2 µM", "value": 0.534}, {"measurement": "relative viability", "setting": "RERF-LC-KJ; first compound 6.325 µM", "value": 0.568}, {"measurement": "relative viability", "setting": "RERF-LC-KJ; first compound 20 µM", "value": 0.245}, {"measurement": "relative viability", "setting": "HARA; first compound 0.2 µM", "value": 1.13}, {"measurement": "relative viability", "setting": "HARA; first compound 0.6325 µM", "value": 1.15}, {"measurement": "relative viability", "setting": "HARA; first compound 2 µM", "value": 1.19}, {"measurement": "relative viability", "setting": "HARA; first compound 6.325 µM", "value": 1.13}, {"measurement": "relative viability", "setting": "HARA; first compound 20 µM", "value": 0.23}, {"measurement": "relative viability", "setting": "LOU-NH91; first compound 0.2 µM", "value": 0.588}, {"measurement": "relative viability", "setting": "LOU-NH91; first compound 0.6325 µM", "value": 0.69}, {"measurement": "relative viability", "setting": "LOU-NH91; first compound 2 µM", "value": 0.532}, {"measurement": "relative viability", "setting": "LOU-NH91; first compound 6.325 µM", "value": 0.492}, {"measurement": "relative viability", "setting": "LOU-NH91; first compound 20 µM", "value": 0.313}, {"measurement": "relative viability", "setting": "LU99A; first compound 0.2 µM", "value": 0.931}, {"measurement": "relative viability", "setting": "LU99A; first compound 0.6325 µM", "value": 0.817}, {"measurement": "relative viability", "setting": "LU99A; first compound 2 µM", "value": 0.781}, {"measurement": "relative viability", "setting": "LU99A; first compound 6.325 µM", "value": 0.836}, {"measurement": "relative viability", "setting": "LU99A; first compound 20 µM", "value": 0.18}, {"measurement": "relative viability", "setting": "H3255; first compound 0.2 µM", "value": 0.561}, {"measurement": "relative viability", "setting": "H3255; first compound 0.6325 µM", "value": 0.557}, {"measurement": "relative viability", "setting": "H3255; first compound 2 µM", "value": 0.467}, {"measurement": "relative viability", "setting": "H3255; first compound 6.325 µM", "value": 0.413}, {"measurement": "relative viability", "setting": "H3255; first compound 20 µM", "value": 0.198}, {"measurement": "relative viability", "setting": "EMC-BAC-2; first compound 0.2 µM", "value": 1.11}, {"measurement": "relative viability", "setting": "EMC-BAC-2; first compound 0.6325 µM", "value": 1.13}, {"measurement": "relative viability", "setting": "EMC-BAC-2; first compound 2 µM", "value": 1.27}, {"measurement": "relative viability", "setting": "EMC-BAC-2; first compound 6.325 µM", "value": 1.05}, {"measurement": "relative viability", "setting": "EMC-BAC-2; first compound 20 µM", "value": 0.274}, {"measurement": "relative viability", "setting": "NCI-H2126; first compound 0.2 µM", "value": 0.898}, {"measurement": "relative viability", "setting": "NCI-H2126; first compound 0.6325 µM", "value": 0.854}, {"measurement": "relative viability", "setting": "NCI-H2126; first compound 2 µM", "value": 0.974}, {"measurement": "relative viability", "setting": "NCI-H2126; first compound 6.325 µM", "value": 0.831}, {"measurement": "relative viability", "setting": "NCI-H2126; first compound 20 µM", "value": 0.812}, {"measurement": "relative viability", "setting": "201T; first compound 0.2 µM", "value": 1.2}, {"measurement": "relative viability", "setting": "201T; first compound 0.6325 µM", "value": 1.21}, {"measurement": "relative viability", "setting": "201T; first compound 2 µM", "value": 1.24}, {"measurement": "relative viability", "setting": "201T; first compound 6.325 µM", "value": 1.19}, {"measurement": "relative viability", "setting": "201T; first compound 20 µM", "value": 1.26}, {"measurement": "relative viability", "setting": "HOP-62; first compound 0.2 µM", "value": 1.11}, {"measurement": "relative viability", "setting": "HOP-62; first compound 0.6325 µM", "value": 1.11}, {"measurement": "relative viability", "setting": "HOP-62; first compound 2 µM", "value": 0.525}, {"measurement": "relative viability", "setting": "HOP-62; first compound 6.325 µM", "value": 0.86}, {"measurement": "relative viability", "setting": "HOP-62; first compound 20 µM", "value": 0.559}, {"measurement": "relative viability", "setting": "NCI-H2087; first compound 0.2 µM", "value": 1.05}, {"measurement": "relative viability", "setting": "NCI-H2087; first compound 0.6325 µM", "value": 0.921}, {"measurement": "relative viability", "setting": "NCI-H2087; first compound 2 µM", "value": 1.03}, {"measurement": "relative viability", "setting": "NCI-H2087; first compound 6.325 µM", "value": 0.928}, {"measurement": "relative viability", "setting": "NCI-H2087; first compound 20 µM", "value": 0.382}, {"measurement": "relative viability", "setting": "COR-L 105; first compound 0.2 µM", "value": 0.78}, {"measurement": "relative viability", "setting": "COR-L 105; first compound 0.6325 µM", "value": 0.8}, {"measurement": "relative viability", "setting": "COR-L 105; first compound 2 µM", "value": 0.732}, {"measurement": "relative viability", "setting": "COR-L 105; first compound 6.325 µM", "value": 0.628}, {"measurement": "relative viability", "setting": "COR-L 105; first compound 20 µM", "value": 0.54}, {"measurement": "relative viability", "setting": "SK-MES-1; first compound 0.2 µM", "value": 1.29}, {"measurement": "relative viability", "setting": "SK-MES-1; first compound 0.6325 µM", "value": 1.26}, {"measurement": "relative viability", "setting": "SK-MES-1; first compound 2 µM", "value": 1.28}, {"measurement": "relative viability", "setting": "SK-MES-1; first compound 6.325 µM", "value": 0.939}, {"measurement": "relative viability", "setting": "SK-MES-1; first compound 20 µM", "value": 0.795}, {"measurement": "relative viability", "setting": "NCI-H2170; first compound 0.2 µM", "value": 0.571}, {"measurement": "relative viability", "setting": "NCI-H2170; first compound 0.6325 µM", "value": 0.636}, {"measurement": "relative viability", "setting": "NCI-H2170; first compound 2 µM", "value": 0.549}, {"measurement": "relative viability", "setting": "NCI-H2170; first compound 6.325 µM", "value": 0.468}, {"measurement": "relative viability", "setting": "NCI-H2170; first compound 20 µM", "value": 0.298}]}]}
